Test results from PubChem BioAssay (NCI).
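Values below derive from 48-hour exposures of cells grown in 96-well plates, with endpoints linearly interpolated between the two concentrations bracketing the appropriate inhibition level. Here, GI50 denotes the concentration required for 50% inhibition of growth. TGI is the concentration that stops growth completely.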

Columns and labels:
Assay in all cases: DTP human tumour cell line panel, 48 h
OVCAR-4 ovarian = system: OVCAR-4 ovarian
HOP-92 NSCLC = system: HOP-92 NSCLC
MDA-MB-231 breast = system: MDA-MB-231 breast
KM12 colon = system: KM12 colon
SK-MEL-2 melanoma = system: SK-MEL-2 melanoma
LOX IMVI melanoma = system: LOX IMVI melanoma
PC-3 prostate = system: PC-3 prostate
CCRF-CEM leukemia = system: CCRF-CEM leukemia
RPMI-8226 leukemia = system: RPMI-8226 leukemia
OVCAR-8 ovarian = system: OVCAR-8 ovarian
MDA-N = system: MDA-N

Row | SMILES | TGI (OVCAR-4 ovarian) [µM] | TGI (HOP-92 NSCLC) [µM] | TGI (MDA-MB-231 breast) [µM] | TGI (KM12 colon) [µM] | TGI (SK-MEL-2 melanoma) [µM] | TGI (LOX IMVI melanoma) [µM] | TGI (PC-3 prostate) [µM] | TGI (CCRF-CEM leukemia) [µM] | TGI (RPMI-8226 leukemia) [µM] | TGI (OVCAR-8 ovarian) [µM] | GI50 (CCRF-CEM leukemia) [µM] | GI50 (OVCAR-8 ovarian) [µM] | GI50 (OVCAR-4 ovarian) [µM] | GI50 (HOP-92 NSCLC) [µM] | GI50 (MDA-MB-231 breast) [µM] | GI50 (KM12 colon) [µM] | GI50 (SK-MEL-2 melanoma) [µM] | GI50 (LOX IMVI melanoma) [µM] | TGI (MDA-N) [µM] | GI50 (PC-3 prostate) [µM]
1 | C[N+](C)([O-])Cc1cc(-c2ccccc2)ccc1O | > 100 | > 100 | > 100 | > 100 | > 100 | > 100 | > 100 | – | – | – | – | – | – | – | – | – | – | – | – | –
2 | C=CCc1cccc(/C=N\N=C(/N)NO)c1O | 38.3 | > 67.9 | – | > 80.9 | > 54.4 | 22.7 | – | > 27 | 14.6 | 52.6 | – | – | – | – | – | – | – | – | – | –
3 | O=C(O)Cn1c2c(c3c(O)cccc31)C(=O)c1ccccc1-2 | > 100 | > 100 | > 100 | > 100 | > 100 | > 100 | – | > 100 | – | > 100 | > 100 | > 100 | > 100 | > 100 | > 100 | > 100 | > 100 | > 100 | – | –
4 | CCCOC1OC(CS(=O)(=O)O)C(O)C(O)C1O (stereo not given) | > 100 | > 100 | – | > 100 | > 100 | > 100 | > 100 | > 100 | > 100 | > 100 | – | – | – | – | – | – | – | – | > 100 | –
5 | COc1cc2c(c(OC(C)=O)c1OC(C)=O)-c1ccc(SC)c(=O)cc1C(NC(C)=O)CC2 (stereo not given) | > 100 | 7.29 | – | 12 | 7.07 | > 100 | – | 35.7 | > 100 | 55.1 | – | – | – | – | – | – | – | – | – | –
6 | O=C(/C=C/c1ccc(O)c(O)c1)NCCc1ccc(-c2ccccc2)cc1 | > 100 | – | – | > 100 | > 100 | – | > 100 | > 100 | > 100 | > 100 | – | – | – | – | – | – | – | – | – | –
7 | O=C1CN(c2ccc(Cl)cc2)C(=O)CN1NCNN1CC(=O)N(c2ccc(Cl)cc2)CC1=O | > 100 | > 100 | – | > 100 | – | – | > 100 | > 100 | > 100 | > 100 | – | – | – | – | – | – | – | – | > 100 | –
8 | CCN(CC)CCNc1ccc2nnn3c4ccccc4c(=O)c1c23 | 13.7 | 11.7 | – | 17.3 | 14 | 12 | – | 18.7 | > 24.2 | 18.6 | – | – | – | – | – | – | – | – | – | –
9 | COc1cc(C23OCC(Cc4cc5c(cc42)OCO5)C3CO)cc(OC)c1OC (stereo not given) | > 100 | > 100 | > 84.4 | > 100 | > 100 | 13.2 | > 100 | > 100 | > 100 | > 100 | – | – | – | – | – | – | – | – | – | –
10 | Cc1ccc(C2CC(c3cccc(Nc4ccncc4)c3)=NN2c2ccccc2)cc1 (stereo not given) | 3.12 | – | – | 3.25 | – | – | 3.24 | 77.9 | – | 4.85 | 3.95 | 2.19 | 1.69 | – | – | 1.75 | – | – | – | 1.59
11 | CCOC(=O)NC(=S)c1ccc(O)c2ccccc12 | > 100 | – | – | > 100 | > 100 | > 100 | > 100 | 46.7 | > 100 | > 100 | – | – | – | – | – | – | – | – | > 100 | –
12 | O=[N+]([O-])c1sc2ccc(Cl)cc2c1Nc1ccc(Cl)cc1 | > 100 | – | > 100 | > 100 | > 100 | > 100 | > 100 | > 100 | > 100 | > 100 | – | – | – | – | – | – | – | – | – | –
13 | Cc1c2c(ccc3ccccc32)c[n+]2ccccc12 | 28.9 | 90.8 | – | 11.8 | 33.7 | – | – | 36.5 | > 100 | 60.1 | – | – | – | – | – | – | – | – | – | –
14 | O=C(O)c1nccnc1C(=O)O | > 100 | > 100 | – | > 100 | > 100 | > 100 | – | > 100 | > 100 | – | – | – | – | – | – | – | – | – | – | –
15 | CC(=O)Oc1c2oc3cc(O)c(O)cc3c2c(OC(C)=O)c2oc3cc(O)c(O)cc3c12 | 62.3 | – | – | 44.4 | 42.1 | > 100 | 56.9 | > 100 | – | 50.2 | – | – | – | – | – | – | – | – | > 100 | –
16 | [O-][n+]1c(-c2ccccc2)c2nc3ccccc3nc2c2ccccc21 | > 100 | > 100 | – | > 100 | > 100 | > 100 | – | > 100 | > 100 | > 100 | – | – | – | – | – | – | – | – | – | –
17 | O=S(=O)(OI(O)CC(F)(F)F)C(F)(F)F | > 100 | > 100 | > 100 | > 100 | > 100 | > 100 | > 100 | > 100 | > 100 | > 100 | – | – | – | – | – | – | – | – | – | –
18 | CC(O[Si](c1ccccc1)(c1ccccc1)C(C)(C)C)[C@H](NC(=O)OC(C)(C)C)C(=O)O (stereo not given in full) | > 100 | 78.1 | – | > 100 | – | – | 56.8 | > 100 | > 100 | > 100 | – | – | – | – | – | – | – | – | 97.1 | –
19 | CC(=O)N/C(=C\c1ccc(/C=C(\NC(C)=O)C2=NC3C(=O)c4ccccc4C(=O)C3N2)cc1)C1=NC2C(=O)c3ccccc3C(=O)C2N1 (stereo not given) | > 100 | > 100 | – | > 100 | – | > 100 | – | 86.4 | > 100 | > 100 | – | – | – | – | – | – | – | – | – | –
